Experimental data from patent publication US9643999B2 (Bristol-Myers Squibb Company, priority 2012, dated 2017).
Read-outs that look alike come from different tables or passages of the source.

What was measured:
HCV genotype 1a replicon = assay: HCV replicon luciferase reporter assay, genotype 1a (LE_1a); format: cell-based; settings: Hepatitis C virus, 72 h, HUH-7 cells, genotype 1a H77 replicon, 3 days incubation, Renilla luciferase
Description: (§1) An HCV replicon whole cell system was established as described by Lohmann V, Korner F, Koch J, Herian U, Theilmann L, Bartenschlager R., Science 285(5424):110-3 (1999) and modified to introduce a luciferase reporter, as first described by Krieger et al (Krieger N, Lohmann V, and Bartenschlager R, J. Virol. 75(10):4614-4624 (2001)). cDNA encoding a humanized form of the Renilla luciferase gene and a linker sequence fused directly to the 3′-end of the luciferase gene were introduced into the replicon construct using an Asc1 restriction site located in core, directly upstream of the neomycin marker gene. The adaptive mutation at position 1179 (serine to isoleucine) was also introduced (Blight K J, Kolykhalov, A A, Rice, C M, Science 290(5498):1972-1974). A stable cell line constitutively expressing this HCV replicon construct was generated by first linearizing plasmid DNAs with ScaI. RNA transcripts were synthesized in vitro using the T7 MegaScript transcription kit (Ambion, Austin, Tex.) according to manufacturer's directions. In vitro transcripts of the cDNA were transfected into the human hepatoma cell line, HUH-7. […] Resulting cell lines were characterized for positive and negative strand RNA production and protein production over time.
A stable HCV replicon luciferase reporter cell line representing the genotype 1a H77 strain (Yanagi M, Purcell R H, Emerson S U, et al. Transcripts from a single full-length cDNA clone of hepatitis C virus are infectious when directly transfected into the liver of a chimpanzee. Proc Natl Acad Sci USA 1997; 94(16):8738-8743) was generated as described previously for the genotype 1b(Con1) replicon luciferase cell line. The replicon construct was modified by introducing mutations were introduced into the genes encoding the NS3 helicase domain (proline replaced by leucine at position 1496) and NS5A (serine to isoleucine at position 2204) to improve replication in cell culture.
(§2) HCV replicon luciferase assays were developed to monitor the inhibitory effects of compounds described in the disclosure on HCV genotypes 1a and 1b viral replication. HUH-7 cells, constitutively expressing the HCV replicon, were grown in Dulbecco's Modified Eagle Media (DMEM) (Gibco-BRL) containing 10% Fetal calf serum (FCS) (Sigma) and 1 mg/mL G418 (Gibco-BRL). Compounds were serially diluted 3 folds in DMSO for a twenty-point titration and subsequently transferred to sterile 384-well tissue-culture treated plates (Corning cat #3571). The plates were then seeded with 50 μL of cells at a density of 3.0×10^3 cells/well in DMEM containing 4% FCS (final DMSO concentration at 0.5%). After 3 days incubation at 37° C., cells were analyzed for Renilla Luciferase activity using the EnduRen as substrate (Promega cat #E6485). The EnduRen substrate was diluted in DMEM and then added to the plates to a final concentration of 7.5 μM. The plates were incubated for 2 hrs at 37° C. and then read immediately for 30 seconds with Viewlux Imager (PerkinElmer) using a luminescence program. To assess cytotoxicity of compounds, CC50 values were generated by multiplexing the EnduRen-containing plates with Cell Titer-Blue (Promega, cat #G8082). Cell-Titer Blue (3 μL) was added to each well and incubated for 8 hrs at 37° C. The fluorescence signal from each well was read, with an excitation wavelength at 525/10 nm and an emission wavelength of 598/10 nm, using the Viewlux Imager.
(§3) The EC50 values for compounds were calculated by using a four-parameter logistic equation: y=A+((B−A)/(1+((C/x)^D))), where A and B denotes minimal and maximal % inhibition, respectively, C is the EC50, D is the hill slope and x represents compound concentration.

HCV genotype 1b replicon = assay: HCV replicon luciferase reporter assay, genotype 1b (LE_1b); format: cell-based; settings: Hepatitis C virus, 72 h, HUH-7 cells, genotype 1b (Con1) replicon, 3 days incubation, Renilla luciferase
Description: as §1, with “time. […]” for “time.”
as §2, §3

| SMILES | EC50 (HCV genotype 1a replicon; read-out: LE_1a (EC50, range)) [nM] | EC50 (HCV genotype 1b replicon; read-out: LE_1b (EC50, range)) [nM] | EC50 (HCV genotype 1a replicon; read-out: LE_1a (EC50)) [nM] | EC50 (HCV genotype 1b replicon; read-out: LE_1b (EC50)) [nM] |
| --- | --- | --- | --- | --- |
| CC[C@@H]1C[C@H](C)CC/C=C\[C@@H]2C[C@@]2(C(=O)NS(=O)(=O)C2(C)CC2)NC(=O)[C@@H]2C[C@@H](Oc3nc4nccn4c4ccc(Cl)cc34)CN2C(=O)[C@H]1NC(=O)OC(C)(C)C(F)(F)F [Compound 6133] | 5.01 to 35 | 0.51 to 1 |  |  |
| [2H]C([2H])([2H])C1(S(=O)(=O)NC(=O)[C@@]23C[C@H]2/C=C\CC[C@@H](C)C[C@@H](CC)[C@H](NC(=O)OC(C)(C)C(F)(F)F)C(=O)N2C[C@H](Oc4nccc5cc(OC)c(F)cc45)C[C@H]2C(=O)N3)CC1 [Compound 5511] | 1.01 to 5 | 1.01 to 5 |  |  |
| CC[C@@H]1C[C@H](C)CC/C=C\[C@@H]2C[C@@]2(C(=O)NS(=O)(=O)C2(C)CC2)NC(=O)[C@@H]2C[C@@H](Oc3cc(-n4ccnc4)nc4cc(OC)ccc34)CN2C(=O)[C@H]1NC(=O)OC(C)(C)C(F)(F)F [Compound 4281] | 5.01 to 35 | 5.01 to 35 |  |  |
| [2H]C([2H])([2H])C1(S(=O)(=O)NC(=O)[C@@]23C[C@H]2/C=C\CC[C@@H](C)C[C@@H](CC)[C@H](NC(=O)OC(C)(C)C)C(=O)N2C[C@H](Oc4nccc5cc(OCC)c(F)cc45)C[C@H]2C(=O)N3)CC1 [Compound 5509] | 1.01 to 5 | 0.51 to 1 |  |  |
| CC[C@@H]1C[C@H](C)CC/C=C\[C@@H]2C[C@@]2(C(=O)NS(=O)(=O)C2CC2)NC(=O)[C@@H]2C[C@@H](Oc3ncc(-c4nc(C(C)(C)C)cs4)c4cc(OC)ccc34)CN2C(=O)[C@H]1NC(=O)OC(C)(C)C(F)(F)F [Compound 4288] | 5.01 to 35 | 5.01 to 35 |  |  |
| C[C@@H]1CC/C=C\[C@@H]2C[C@@]2(C(=O)NS(=O)(=O)C2(C)CC2)NC(=O)[C@@H]2C[C@@H](Oc3nc4nccn4c4ccc(Cl)cc34)CN2C(=O)[C@@H](NC(=O)OC(C)(C)C(F)(F)F)[C@H](C)C1 [Compound 6129] | 1.01 to 5 | 0.51 to 1 | 4.21 | 0.78 |
| CC[C@@H]1C[C@H](C)CC/C=C\[C@@H]2C[C@@]2(C(=O)NS(=O)(=O)C2(C)CC2)NC(=O)[C@@H]2C[C@@H](Oc3cc(-n4ccc(C(C)C)n4)nc4cc(OC)ccc34)CN2C(=O)[C@H]1NC(=O)OC(C)(C)C(F)(F)F [Compound 4358] | 1.01 to 5 | 1.01 to 5 |  |  |
| CC[C@@H]1C[C@H](C)CC/C=C\[C@@H]2C[C@@]2(C(=O)NS(=O)(=O)C2(C)CC2)NC(=O)[C@@H]2C[C@@H](Oc3ncc(N(C)C(=O)c4ccccc4)c4cc(OC)ccc34)CN2C(=O)[C@H]1NC(=O)OC(C)(C)C(F)(F)F [Compound 4248] | 1.01 to 5 | 1.01 to 5 |  |  |
| CC[C@@H]1C[C@H](C)CC/C=C\[C@@H]2C[C@@]2(C(=O)NS(=O)(=O)C2(C)CC2)NC(=O)[C@@H]2C[C@@H](Oc3ncc(-c4cnco4)c4cc(OC)ccc34)CN2C(=O)[C@H]1NC(=O)OC(C)(C)C [Compound 4285, tert-butyl((2R,6S,7R,9R,13aS,14aR,16aS,Z)-7-ethyl-2-((6-methoxy-4-(oxazol-5-yl)isoquinolin-1-yl)oxy)-9-methyl-14a-(((1-methylcyclopropyl)sulfonyl)carbamoyl)-5,16-dioxo-1,2,3,5,6,7,8,9,10,11,13a,14,14a,15,16,16a-hexadecahydrocyclopropa[e]pyrrolo[1,2-a][1,4]diazacyclopentadecin-6-yl)carbamate] | 1.01 to 5 | 1.01 to 5 |  |  |
| [2H]C([2H])([2H])C1(S(=O)(=O)NC(=O)[C@@]23C[C@H]2/C=C\CC[C@@H](C)C[C@@H](CC)[C@H](NC(=O)OC(C)(C)C)C(=O)N2C[C@H](Oc4nccc5cc(OC)c(F)cc45)C[C@H]2C(=O)N3)CC1 [Compound 5507] | 1.01 to 5 | 0.51 to 1 |  |  |
| C[C@@H]1CC/C=C\[C@@H]2C[C@@]2(C(=O)NS(=O)(=O)C2(C)CC2)NC(=O)[C@@H]2C[C@@H](Oc3nccc4c5c(ccc34)CCO5)CN2C(=O)[C@@H](NC(=O)OC(C)(C)C(F)(F)F)[C@H](C)C1 [Compound 5497] | 5.01 to 35 | 1.01 to 5 |  |  |
